Measured values: patent US20240425480A1, “NOVEL PYRIDINE DERIVATIVE COMPOUND AS RON INHIBITOR” (LG CHEM, LTD., priority 2021, published 2024)
pIC50: −log10 of the molar value.

Legend:
RON = RON (Homo sapiens, UniProt Q04912); assay: Inhibitory activity against RON, TR-FRET kinase assay; assay type: biochemical; settings: TR-FRET enzyme assay
Experimental: In order to measure the inhibitory activity of each of the compounds of Examples against RON, the IC50 of each of the compounds was measured using Time-resolved fluorescence energy transfer (TR-FRET).
(§1) Specifically, the compound was prepared to a concentration of 1 mM in 100% DMSO and was diluted 10 times in a stepwise manner through 3-fold dilution. The compound (2 ul) diluted in a stepwise manner was added to a 96-well-plate containing 48 ul of a 1× kinase reaction buffer (50 mM HEPES (pH 7.4), 0.01% Tween-20, 5 mM DTT, 0.5 mM Na3VO4, 2 mM EGTA, 10 mM MgCl2).
The RON protein was diluted to a concentration of 49.3 nM in a RON storage buffer (50 mM Tris-HCl (pH 7.5), 150 mM NaCl, 0.5 mM EDTA, 0.02% Triton X-100), and then diluted again to a concentration of 0.4 nM in a 1×kinase reaction buffer. As a substrate cocktail, a RON-specific substrate mixed solution (40 uM ULight-labeled Poly GT, 100 nM ATP) was prepared at a concentration 2 times the final reaction concentration.
(§2) Thereafter, a 384-well-plate was prepared, and 2.5 μl of each of the diluted compounds of Examples was added to a corresponding well of experimental group wells, and 2.5 μl of a 4% DMSO solution was dispensed into high control wells and low control wells.
(§3) Thereafter, 2.5 μL of 0.4 nM RON was dispensed into each of the high control wells and the experimental group wells, and 2.5 μL of the 1× kinase reaction buffer was added to the low control wells, and all the wells were centrifuged at room temperature for 40 seconds at 1,000 RPM, and then incubated at room temperature for 20-30 minutes. Then, 5 μL of the substrate cocktail (2×) was dispensed into each well, and all the wells were centrifuged at room temperature for 40 seconds at 1,000 RPM, and then incubated at room temperature for 60 minutes. Thereafter, 5 μL of 30 mM EDTA was added to each well to terminate the reaction, and all the wells were then incubated again at room temperature for 5 minutes. Thereafter, 5 μL of a 4×phosphotyrosine antibody (Perkin Elmer) containing europium was added to each well, and all the wells were then incubated at room temperature for 60 minutes. After the incubation, the 384-well-plate was read with the Vison plate reader. In this case, the excitation wavelength was 340 nm, and the emission wavelength was 620 nm and 665 nm. The IC50 value of each compound of Examples was derived using the GraphPd Prism7 program.

cMET = cMET (Homo sapiens, UniProt P08581); assay: Inhibitory activity against MET (cMET), TR-FRET kinase assay; assay type: biochemical; settings: TR-FRET enzyme assay
Sequence of cMET (P08581 25-1390): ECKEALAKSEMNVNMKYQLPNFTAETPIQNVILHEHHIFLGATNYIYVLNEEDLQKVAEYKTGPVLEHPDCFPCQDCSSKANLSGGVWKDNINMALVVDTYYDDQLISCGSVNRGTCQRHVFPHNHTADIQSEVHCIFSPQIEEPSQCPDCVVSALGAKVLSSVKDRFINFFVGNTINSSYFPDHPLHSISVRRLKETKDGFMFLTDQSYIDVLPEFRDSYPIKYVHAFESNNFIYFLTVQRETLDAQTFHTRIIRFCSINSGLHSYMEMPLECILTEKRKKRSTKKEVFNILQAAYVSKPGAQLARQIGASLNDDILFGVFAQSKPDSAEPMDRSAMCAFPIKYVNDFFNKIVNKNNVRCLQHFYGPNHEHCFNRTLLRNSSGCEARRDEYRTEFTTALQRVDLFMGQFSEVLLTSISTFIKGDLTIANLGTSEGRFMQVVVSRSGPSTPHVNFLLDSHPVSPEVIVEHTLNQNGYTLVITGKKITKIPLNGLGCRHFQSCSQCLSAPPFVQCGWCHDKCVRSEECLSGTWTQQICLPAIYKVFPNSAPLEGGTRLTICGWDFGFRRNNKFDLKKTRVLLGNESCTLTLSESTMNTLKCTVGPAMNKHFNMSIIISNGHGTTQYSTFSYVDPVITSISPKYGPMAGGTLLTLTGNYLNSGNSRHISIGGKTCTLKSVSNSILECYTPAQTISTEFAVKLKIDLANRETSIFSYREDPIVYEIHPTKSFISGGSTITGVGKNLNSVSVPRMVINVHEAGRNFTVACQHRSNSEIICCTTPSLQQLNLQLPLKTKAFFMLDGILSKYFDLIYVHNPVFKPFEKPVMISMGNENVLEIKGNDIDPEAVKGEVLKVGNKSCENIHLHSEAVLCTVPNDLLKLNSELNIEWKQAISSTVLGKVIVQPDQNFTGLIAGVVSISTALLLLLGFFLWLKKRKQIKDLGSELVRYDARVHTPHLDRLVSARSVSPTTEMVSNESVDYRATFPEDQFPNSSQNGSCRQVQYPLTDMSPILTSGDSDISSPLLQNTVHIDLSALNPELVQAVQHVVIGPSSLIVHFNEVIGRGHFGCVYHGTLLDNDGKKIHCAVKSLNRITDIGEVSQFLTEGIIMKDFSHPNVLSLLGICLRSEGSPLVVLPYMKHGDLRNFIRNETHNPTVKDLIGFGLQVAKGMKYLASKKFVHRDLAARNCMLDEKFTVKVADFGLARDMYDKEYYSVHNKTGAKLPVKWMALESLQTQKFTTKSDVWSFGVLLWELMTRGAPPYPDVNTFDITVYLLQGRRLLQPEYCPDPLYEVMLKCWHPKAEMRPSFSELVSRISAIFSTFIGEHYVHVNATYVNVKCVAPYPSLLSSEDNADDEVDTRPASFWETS
Experimental: In addition, in order to measure the enzyme activity inhibition for cMET, the evaluation was performed in the same manner as the enzyme activity inhibition measurement experiment for RON.
as §1, with “a 1×kinase” for “a 1× kinase”, “7.4), 0.05% BSA, 0.005%” for “7.4), 0.01%”, “Tween-20, 1” for “Tween-20, 5”, “mM MnCl2, 20” for “mM Na3VO4, 2 mM EGTA, 10”
The cMET protein was diluted to a concentration of 263 nM in a cMET storage buffer (50 mM Tris-HCl (pH 7.5), 150 mM NaCl, 0.05% Brij35, 1 mM DTT, 10% Glycerol), and then diluted again to a concentration of 2 nM in a 1×kinase reaction buffer. As a substrate cocktail, a MET-specific substrate mixed solution (5 uM TK peptide, 10 mM ATP) was prepared at a concentration 2 times the final reaction concentration.
as §2
as §3, with “of 2” for “of 0.4”, “nM cMET” for “nM RON”, “of 90” for “of 30”, “The […]” for “The IC50”

Sequence of RON (Q04912 25-1400, species assumed): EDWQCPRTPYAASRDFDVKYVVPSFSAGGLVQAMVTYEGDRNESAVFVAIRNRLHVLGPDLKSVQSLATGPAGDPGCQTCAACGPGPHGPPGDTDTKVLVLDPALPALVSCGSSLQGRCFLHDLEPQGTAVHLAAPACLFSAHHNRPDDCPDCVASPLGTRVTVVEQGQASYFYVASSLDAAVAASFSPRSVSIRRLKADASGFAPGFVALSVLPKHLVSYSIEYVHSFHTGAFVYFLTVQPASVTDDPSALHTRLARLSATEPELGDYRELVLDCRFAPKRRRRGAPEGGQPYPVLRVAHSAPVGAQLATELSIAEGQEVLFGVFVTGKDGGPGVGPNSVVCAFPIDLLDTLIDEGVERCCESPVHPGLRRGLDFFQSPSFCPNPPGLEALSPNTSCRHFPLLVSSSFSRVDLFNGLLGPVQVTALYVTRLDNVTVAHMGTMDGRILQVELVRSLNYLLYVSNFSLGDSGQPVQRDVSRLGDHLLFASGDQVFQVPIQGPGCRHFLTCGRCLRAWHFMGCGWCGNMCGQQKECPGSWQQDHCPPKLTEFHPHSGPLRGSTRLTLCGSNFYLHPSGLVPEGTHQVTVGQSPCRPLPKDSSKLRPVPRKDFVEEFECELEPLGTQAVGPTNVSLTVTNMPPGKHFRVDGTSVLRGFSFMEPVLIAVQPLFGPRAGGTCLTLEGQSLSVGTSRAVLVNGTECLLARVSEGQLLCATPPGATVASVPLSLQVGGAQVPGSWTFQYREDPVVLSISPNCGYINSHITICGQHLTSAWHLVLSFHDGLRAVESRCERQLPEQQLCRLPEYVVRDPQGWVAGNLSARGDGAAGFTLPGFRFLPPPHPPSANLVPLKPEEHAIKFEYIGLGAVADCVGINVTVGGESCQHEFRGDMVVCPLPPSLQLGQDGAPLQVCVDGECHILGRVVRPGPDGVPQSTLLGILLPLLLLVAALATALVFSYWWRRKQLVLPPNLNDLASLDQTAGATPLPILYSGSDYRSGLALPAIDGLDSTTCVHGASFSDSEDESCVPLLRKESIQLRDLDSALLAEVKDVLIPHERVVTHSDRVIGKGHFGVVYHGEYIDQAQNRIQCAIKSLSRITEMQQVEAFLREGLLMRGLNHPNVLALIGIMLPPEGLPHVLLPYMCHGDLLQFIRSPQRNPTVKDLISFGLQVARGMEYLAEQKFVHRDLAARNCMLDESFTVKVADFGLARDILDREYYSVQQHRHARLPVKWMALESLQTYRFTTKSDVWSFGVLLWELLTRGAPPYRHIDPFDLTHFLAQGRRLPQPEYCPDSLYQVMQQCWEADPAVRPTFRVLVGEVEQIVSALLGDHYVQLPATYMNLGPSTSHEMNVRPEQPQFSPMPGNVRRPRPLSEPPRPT

SMILES | pIC50 (RON) | pIC50 (cMET)
Nc1ncnc(Oc2ccc(NC(=O)c3nc(-c4ccccc4)cs3)cc2F)c1Cl [Example 41, N-[4-(6-amino-5-chloro-pyrimidin-4-yl)oxy-3-fluoro-phenyl]-4-phenyl-thiazole-2-carboxamide] | < 5.30 | < 5.30
Cn1cc(-n2ncc(C(=O)Nc3ccc(Oc4ncnc(N)c4Cl)c(F)c3)c2C(F)(F)F)cn1 [Example 42, N-[4-(6-amino-5-chloro-pyrimidin-4-yl)oxy-3-fluoro-phenyl]-1-(1-methylpyrazol-4-yl)-5-(trifluoromethyl)pyrazole-4-carboxamide] | 5.30 to 6.30 | < 5.30
Cc1ccc(-n2ncc(C(=O)Nc3ccc(Oc4ncnc(N)c4Cl)c(F)c3)c2C(F)(F)F)nc1 [Example 48, N-[4-(6-amino-5-chloro-pyrimidin-4-yl)oxy-3-fluoro-phenyl]-1-(5-methyl-2-pyridyl)-5-(trifluoromethyl)pyrazole-4-carboxamide] | 5.30 to 6.30 | < 5.30
Cc1cccc(-n2ncc(C(=O)Nc3ccc(Oc4ncnc(N)c4Cl)c(F)c3)c2C(F)(F)F)n1 [Example 49, N-[4-(6-amino-5-chloro-pyrimidin-4-yl)oxy-3-fluoro-phenyl]-1-(6-methyl-2-pyridyl)-5-(trifluoromethyl)pyrazole-4-carboxamide] | 5.30 to 6.30 | < 5.30
Nc1ncnc(Oc2ccc(NC(=O)c3cnn(-c4cc(Cl)ccn4)c3C(F)(F)F)cc2F)c1Cl [Example 52, N-[4-(6-amino-5-chloro-pyrimidin-4-yl)oxy-3-fluoro-phenyl]-1-(4-chloro-2-pyridyl)-5-(trifluoromethyl)pyrazole-4-carboxamide] | 5.30 to 6.30 | < 5.30
Nc1ncnc(Oc2ccc(NC(=O)c3cnn(-c4ncccc4C(F)(F)F)c3C(F)(F)F)cc2F)c1Cl [Example 53, N-[4-(6-amino-5-chloro-pyrimidin-4-yl)oxy-3-fluoro-phenyl]-5-(trifluoromethyl)-1-[3-(trifluoromethyl)-2-pyridyl]pyrazole-4-carboxamide] | 6.30 to 7.30 | 5.30 to 6.30
COc1cccnc1-n1ncc(C(=O)Nc2ccc(Oc3ncnc(N)c3Cl)c(F)c2)c1C(F)(F)F [Example 54, N-[4-(6-amino-5-chloro-pyrimidin-4-yl)oxy-3-fluoro-phenyl]-1-(3-methoxy-2-pyridyl)-5-(trifluoromethyl)pyrazole-4-carboxamide] | 6.30 to 7.30 | < 5.30
CCc1ccnc(-n2ncc(C(=O)Nc3ccc(Oc4ncnc(N)c4Cl)c(F)c3)c2C(F)(F)F)c1 [Example 55, N-[4-(6-amino-5-chloro-pyrimidin-4-yl)oxy-3-fluoro-phenyl]-1-(4-ethyl-2-pyridyl)-5-(trifluoromethyl)pyrazole-4-carboxamide] | 5.30 to 6.30 | < 5.30
Nc1ncnc(Oc2ccc(NC(=O)c3cnn(-c4cccnc4)c3C(F)(F)F)cc2F)c1Cl [Example 56, N-[4-(6-amino-5-chloro-pyrimidin-4-yl)oxy-3-fluoro-phenyl]-1-(3-pyridyl)-5-(trifluoromethyl)pyrazole-4-carboxamide] | 6.30 to 7.30 | < 5.30
Nc1ncnc(Oc2ccc(NC(=O)c3cnn(-c4ccncc4)c3C(F)(F)F)cc2F)c1Cl [Example 57, N-[4-(6-amino-5-chloro-pyrimidin-4-yl)oxy-3-fluoro-phenyl]-1-(4-pyridyl)-5-(trifluoromethyl)pyrazole-4-carboxamide] | 5.30 to 6.30 | < 5.30
CCc1cccnc1-n1ncc(C(=O)Nc2ccc(Oc3ncnc(N)c3Cl)c(F)c2)c1C(F)(F)F [Example 58, N-[4-(6-amino-5-chloro-pyrimidin-4-yl)oxy-3-fluoro-phenyl]-1-(3-ethyl-2-pyridyl)-5-(trifluoromethyl)pyrazole-4-carboxamide] | 6.30 to 7.30 | < 5.30
Nc1ncnc(Oc2ccc(NC(=O)c3cnn(-c4cccnn4)c3C(F)(F)F)cc2F)c1Cl [Example 60, N-[4-(6-amino-5-chloro-pyrimidin-4-yl)oxy-3-fluoro-phenyl]-1-pyridazin-3-yl-5-(trifluoromethyl)pyrazole-4-carboxamide] | 6.30 to 7.30 | < 5.30

Results, then the compound that gave them:

pIC50 (RON) | pIC50 (cMET) | SMILES
> 7.30 | < 5.30 | Nc1ncnc(Oc2ccc(NC(=O)c3cnn(-c4ccccn4)c3C(F)(F)F)cc2F)c1Cl [Example 43, N-(4-((6-amino-5-chloropyrimidin-4-yl)oxy)-3-fluorophenyl)-1-(pyridin-2-yl)-5-(trifluoromethyl)-1H-pyrazole-4-carboxamide]
6.30 to 7.30 | < 5.30 | Nc1ncnc(Oc2ccc(NC(=O)c3cnn(-c4cncnc4)c3C(F)(F)F)cc2F)c1Cl [Example 44, N-[4-(6-amino-5-chloro-pyrimidin-4-yl)oxy-3-fluoro-phenyl]-1-pyrimidin-5-yl-5-(trifluoromethyl)pyrazole-4-carboxamide]
> 7.30 | 5.30 to 6.30 | Nc1ncnc(Oc2ccc(NC(=O)c3cnn(-c4ncccc4F)c3C(F)(F)F)cc2F)c1Cl [Example 45, N-[4-(6-amino-5-chloro-pyrimidin-4-yl)oxy-3-fluoro-phenyl]-1-(3-fluoro-2-pyridyl)-5-(trifluoromethyl)pyrazole-4-carboxamide]
6.30 to 7.30 | < 5.30 | Cc1cccnc1-n1ncc(C(=O)Nc2ccc(Oc3ncnc(N)c3Cl)c(F)c2)c1C(F)(F)F [Example 46, N-[4-(6-amino-5-chloro-pyrimidin-4-yl)oxy-3-fluoro-phenyl]-1-(3-methyl-2-pyridyl)-5-(trifluoromethyl)pyrazole-4-carboxamide]
6.30 to 7.30 | < 5.30 | Cc1ccnc(-n2ncc(C(=O)Nc3ccc(Oc4ncnc(N)c4Cl)c(F)c3)c2C(F)(F)F)c1 [Example 47, N-[4-(6-amino-5-chloro-pyrimidin-4-yl)oxy-3-fluoro-phenyl]-1-(4-methyl-2-pyridyl)-5-(trifluoromethyl)pyrazole-4-carboxamide]
6.30 to 7.30 | < 5.30 | Nc1ncnc(Oc2ccc(NC(=O)c3cnn(-c4ccc(F)cn4)c3C(F)(F)F)cc2F)c1Cl [Example 50, N-[4-(6-amino-5-chloro-pyrimidin-4-yl)oxy-3-fluoro-phenyl]-1-(5-fluoro-2-pyridyl)-5-(trifluoromethyl)pyrazole-4-carboxamide]
> 7.30 | 5.30 to 6.30 | Nc1ncnc(Oc2ccc(NC(=O)c3cnn(-c4ncccc4Cl)c3C(F)(F)F)cc2F)c1Cl [Example 51, N-[4-(6-amino-5-chloro-pyrimidin-4-yl)oxy-3-fluoro-phenyl]-1-(3-chloro-2-pyridyl)-5-(trifluoromethyl)pyrazole-4-carboxamide]
> 7.30 | < 5.30 | Nc1ncnc(Oc2ccc(NC(=O)c3cnn(-c4ncccn4)c3C(F)(F)F)cc2F)c1Cl [Example 59, N-[4-(6-amino-5-chloro-pyrimidin-4-yl)oxy-3-fluoro-phenyl]-1-pyrimidin-2-yl-5-(trifluoromethyl)pyrazole-4-carboxamide]
